From publication PMC4624469 (Synapse (New York, N.Y.), 2015)
Several values for one entry are separate records, joined by “and”; a condition that tells them apart may be missing. Equal values may be shown once. Entries after “also recorded” stand apart in the source; their conditions may differ. Read-outs that look alike come from different tables or passages of the source.

What was measured:
D3 Receptor [1] = experiment: Binding affinity of drugs at D3 receptor; details: for In Vitro D3 Selectivity: D2/D3 affinity ratio of the cited Table 1 values
D2 Receptor = details: read-out: Binding Affinity D2 Receptor, cited from earlier work
D3 Receptor [2] = details: read-out: Binding Affinity D3 Receptor, cited from earlier work
D3R [3] = details: cited from earlier work
[4] = test system: dopamine D2 receptor (D2R)/D3R; assay type: binding, rabbit
[5] = Brain uptake / approximated brain concentration after intravenous injection; assay type: in vivo, rat; details: assuming uptake like 11C-5-OH-DPAT
[6] = molecular target: D2R high-affinity (D2Rhigh) sites; details: read-out: Kd for D2Rhigh, 1996, cited from earlier work
[7] = test system: dopamine D2 receptor (D2R)/D3R; experiment: In vivo rat PET: drug-induced displacement of 18F-fallypride; details: for 18F-Fallypride displacement in vivo (change), Dorsal Striatum / 18F-Fallypride displacement in vivo (change), Ventral Striatum: 90 min post 18F-fallypride
[8] = test system: dopamine D2 receptor (D2R)/D3R
[9] = reason for HPbCD vehicle; ref Xi et al., 2004; Gilbert et al. 2005; cited from earlier work
D3R [10] = details: human brain; ref Tziortzi et al., 2011; cited from earlier work
D2R/D3R [11] = molecular target: D2R/D3R (Mus musculus, UniProt P30728); experiment: PET/CT of 18F-fallypride in wild type and D2R knock-out mice; assay type: in vivo; details: D2R knock-out mice, PET
D2R/D3R (Mus musculus, UniProt P30728), sequence (P30728 whole entry): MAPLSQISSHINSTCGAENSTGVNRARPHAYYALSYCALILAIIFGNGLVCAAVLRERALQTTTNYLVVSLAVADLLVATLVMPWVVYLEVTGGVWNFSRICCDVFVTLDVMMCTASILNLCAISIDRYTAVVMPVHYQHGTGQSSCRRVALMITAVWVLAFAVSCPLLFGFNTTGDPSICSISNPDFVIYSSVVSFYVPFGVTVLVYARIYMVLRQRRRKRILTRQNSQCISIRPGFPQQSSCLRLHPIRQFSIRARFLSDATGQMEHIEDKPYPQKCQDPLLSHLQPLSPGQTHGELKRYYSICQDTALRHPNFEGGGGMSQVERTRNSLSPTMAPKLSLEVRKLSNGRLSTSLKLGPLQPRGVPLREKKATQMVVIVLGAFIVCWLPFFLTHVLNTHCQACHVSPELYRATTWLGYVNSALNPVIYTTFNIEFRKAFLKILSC

D2R/D3R [12] = experiment: as above; assay type: in vivo
[13] = test system: dopamine D3R, D2Rhigh and D2Rlow receptors; experiment: Approximate levels of 18F-fallypride bound to receptor subtypes; details: in vivo levels in striatum
D2RShort = details: read-out: D2RShort Ki; with 3H-spiperone; ref Stark et al., 2007; cited from earlier work
D2RLong = details: read-out: D2RLong Ki; with 3H-spiperone; ref Stark et al., 2007; cited from earlier work
[14] = ref Mukherjee et al., 2000; cited from earlier work
[15] = intravenous dose of 0.015 mg/kg
[16] = rat sagittal slices, 10 µM drug, dorsal and ventral striata
[17] = In Vitro and In Vivo PET, ref Mukherjee et al., 2000, Shi et al., 2004
[18] = BPND KO/BPND WT, mice, listed as 18F-fallypride
[19] = wild-type mice, PET, cerebellum reference

## CCCN1CCO[C@@H]2c3cc(O)ccc3CC[C@H]21 [PHNO]
D3 Receptor [1]
  In Vitro D3 Selectivity: 53
D2 Receptor; ref Willeit et al., 2006
  Ki: 8.5 nM
D3 Receptor [2]; ref Willeit et al., 2006
  Ki: 0.16 nM

## CCCN(CCC)C1CCc2ccc(O)cc2C1 (centres unmarked) [3H-7-OH-DPAT]
D3R [3]; In Vitro, ref Gonzalez and Sibley, 1995
  Findings (receptor subtype binding): D3R binding at low concentrations and D2Rhigh at higher concentrations

## CCCN(CCC)[C@@H]1CCc2ccc(O)cc2C1 [(R)-7-OH-DPAT]
[4]; 10 nM drug, rabbit nucleus accumbens
  18F-fallypride binding reduced by: 10–15%
[4]; 10 µM drug, all regions in rabbit
  18F-fallypride binding reduced by: ≥ 85%
[4]; rabbit sagittal slices, lower doses, olfactory tubercle and nucleus accumbens
  18F-fallypride displaced: approx. 15%
[5]; dose of 1.88 mg/kg
  Approximated brain concentration: approximately 100 nM
[5]; [15]
  Approximated brain concentration: 0.6 to 1 nM
[6]; ref Gonzalez and Sibley, 1995, van Vliet et al.
  Kd: 56 nM and 89 nM
[7]; 0.015 mg/kg iv, rat PET
  18F-Fallypride displacement in vivo (change), Dorsal Striatum: −22% and −21.5%
  18F-Fallypride displacement in vivo (change), Ventral Striatum: −29% and −28.7%
  Nondisplaced 18F-Fallypride: 71 to 78%
  displacement of 18F-fallypride in the ventral striatum: 29%
  dorsal striatum 18F-fallypride binding reduced by: 22%
[7]; 0.06 mg/kg iv, rat PET
  18F-Fallypride displacement in vivo (change), Dorsal Striatum: −32.9%
  18F-Fallypride displacement in vivo (change), Ventral Striatum: −43.4%
  Nondisplaced 18F-Fallypride: 57 to 67%
[7]; 0.38 mg/kg iv, rat PET
  18F-Fallypride displacement in vivo (change), Dorsal Striatum: −67.9%
  18F-Fallypride displacement in vivo (change), Ventral Striatum: −75%
  Nondisplaced 18F-Fallypride: 25 to 32%
[7]; 1.88 mg/kg iv, rat PET
  18F-Fallypride displacement in vivo (change), Dorsal Striatum: −58% and −57.6%
  18F-Fallypride displacement in vivo (change), Ventral Striatum: −77% and −76.7%
  Nondisplaced 18F-Fallypride: 23 to 42%
  displacement of 18F-fallypride in the ventral striatum: 77%
  dorsal striatum 18F-fallypride binding reduced by: 58%
[7]; dose of 1.88 mg/kg
  18F-fallypride displaced in vivo: greater than 50%
[7]; [15]
  18F-fallypride displaced in vivo: approximately 20%
[8]; 10 nM drug, rat ventral striatum (VST) and dorsal striatum (DST)
  18F-fallypride binding reduced by: 10–15%
[8]; 10 µM drug, all regions in rat
  18F-fallypride binding reduced by: ≥ 85%
[8]; rat horizontal slices, 100 nM drug
  18F-fallypride displaced: approx. 30%
[8]; rat horizontal slices, 10 µM drug
  18F-fallypride displaced: exceeded 80%
[8]; rat horizontal slices, micromolar concentration
  18F-fallypride displaced: about 60%
[8]; rat sagittal slices, 10 µM drug, dorsal striatum
  18F-fallypride displaced: approx. 75%

## O=C(NCCCCN1CCN(c2cccc(Cl)c2Cl)CC1)c1ccc2c(c1)Cc1ccccc1-2 [NGB 2904]
D3 Receptor [1]
  D3R selectivity (over D2R): > 50 fold
  In Vitro D3 Selectivity: 56
D2 Receptor; ref Heiderbreder et al., 2010
  Ki: 112 nM
D3 Receptor [2]; ref Heiderbreder et al., 2010
  Ki: 2 nM
[9]
  Water solubility: low water solubility
[7]; 4 mg/kg iv at 90 min, rat PET
  Effect on 18F-fallypride binding in dorsal and ventral striatum: no measureable reduction; also recorded: not evident
[7]; 4.0 mg/kg iv in HPbCD, rat PET
  18F-Fallypride displacement in vivo (change), Dorsal Striatum: Not significant
  18F-Fallypride displacement in vivo (change), Ventral Striatum: Not significant
[7]; 4.0 mg/kg iv, rat PET
  Nondisplaced 18F-Fallypride: 100%
[8]; [16]
  18F-fallypride displaced: 40 to 50%

## C=CCN1CCC[C@H]1CNC(=O)c1cc(CCCF)cc(OC)c1OC [Fallypride]
D2 Receptor; ref Stark et al., 2007
  Ki: 2.1 nM

## CC[11CH2]N1CCO[C@@H]2c3cc(O)ccc3CCC21 (some centres unmarked) [11C-PHNO]
D3R [10]
  D3R binding fraction, substantia nigra and hypothalamus: 100%
  D3R binding fraction, ventral striatum: 26%

## CCCN(CCCCC[18F])C1CCc2c(O)cccc2C1 (racemic) [18F-5-OH-FPPAT, (R,S)-2-(N-propyl-N-(5-^18F-fluoropentyl)-5-hydroxyaminotetralin]
D3R [3]; [17]
  Findings (receptor subtype binding): D2Rhigh and some D3R (yet to be confirmed)

## CCCN(CC=C[125I])C1CCc2ccc(O)cc2C1 (centres unmarked) [125I-7-OH-PIPAT]
D3R [3]; In Vitro, ref Mugnani et al., 2013, Gurevich and Joyce, 1999
  Findings (receptor subtype binding): D3R binding; D2Rhigh binding not known

## C=CCN1CCC[C@H]1CNC(=O)c1cc(CCC[18F])cc(OC)c1OC [18F-Fallypride, (S)-N-[(1-allyl-2-pyrrolidinyl)methyl]-5-(3-[18F]fluoropropyl)-2,3-dimethoxybenzamide]
D2R/D3R [11]
  BPND KO, Hypothalmus: 1.36
  BPND KO, Substantia nigra/ Ventral tegmental area: 0.81
  BPND KO, Ventral Striatum: 0.55
D2R/D3R [11]; small negative values listed as 0
  BPND KO, Dorsal Striatum: 0
D2R/D3R [12]; BPND KO/BPND WT, mice
  fD3 (fraction of total binding to D3 receptors), Dorsal Striatum: 0%
  fD3 (fraction of total binding to D3 receptors), Hypothalmus: 98.5%
  fD3 (fraction of total binding to D3 receptors), Substantia nigra/ Ventral tegmental area: 99.2%
  fD3 (fraction of total binding to D3 receptors), Ventral Striatum: 15.6%
D2R/D3R [12]; [18]
  fD3 (fraction of total binding to D3 receptors), Hypothalmus: ~ 100%
  fD3 (fraction of total binding to D3 receptors), Substantia nigra/ Ventral tegmental area: ~ 100%
  fD3 (fraction of total binding to D3 receptors), Ventral Striatum: 15%
D2R/D3R [12]; [19]
  BPND WT, Dorsal Striatum: 5.30
  BPND WT, Hypothalmus: 1.38
  BPND WT, Substantia nigra/ Ventral tegmental area: 0.81
  BPND WT, Ventral Striatum: 3.51
[13]
  Level of 18F-fallypride bound to D2Rhigh: ~60%
  Level of 18F-fallypride bound to D2Rlow: ~20%
  Level of 18F-fallypride bound to D3R: ~20%
D2RShort
  Ki: 2.1 nM
D2RLong
  Ki: 2.2 nM

## CCCN([11CH2]CC)C1CCc2c(O)cccc2C1 (racemic) [11C-5-OH-DPAT, 11C-(R,S)-5-hydroxy-2-(di-n-propylamino)tetralin]
[14]
  Uptake in the rat brain: approximately 1 % of the injected dose
D3R [3]; [17]
  Findings (receptor subtype binding): D2Rhigh and some D3R (yet to be confirmed)

## CCCN(CCC)C1CCc2ccc(O)cc2C1 (centres unmarked) [7-OH-DPAT]
[6]; ref van Vliet et al.
  Kd: 56 nM and 89 nM

## COc1ccccc1N1CCN(CCCCNC(=O)c2ccc3ccccc3c2)CC1 [BP 897]
[9]
  Water solubility: low water solubility
[7]; 3 mg/kg iv at 90 min post 18F-fallypride, rat PET
  18F-fallypride displaced, dorsal and ventral striatum: 24–29%
[7]; 3.2 mg/kg at 90 min, rat PET
  Effect on 18F-fallypride binding in DSTR and VSTR: visible reduction
[7]; 3.2 mg/kg iv in HPbCD, rat PET
  18F-Fallypride displacement in vivo (change), Dorsal Striatum: −29.3%
  18F-Fallypride displacement in vivo (change), Ventral Striatum: −24.0%
[7]; 3.2 mg/kg iv, rat PET
  Nondisplaced 18F-Fallypride: 70 to 76%
[7]; rat PET, striatum, dose not given at place
  18F-fallypride displaced in vivo: > 20%
[8]; [16]
  18F-fallypride displaced: more than 90%
